Data as given in US20230027066A1 (Urovant Sciences GmbH, priority 2019, published 2023).

System: men and women with overactive bladder
Assay: Phase 3 study of vibegron 75 mg vs placebo and tolterodine ER 4 mg, 12 weeks, efficacy (voiding and urine volume diary)
Type: in vivo, human
Settings: for First 50% Reduction in Urgency Episodes, Events / First 100% Reduction in UUI Episodes, Events: events of Events/Censored
Procedure: Enrollment of patients included individuals with OAB Wet (those with UUI, the involuntary loss of urine accompanied by urgency) and OAB Dry (those without UUI). A total of 1,518 patients were randomized across 215 study sites into one of three groups for a 12-week treatment period.
The study consisted of a Screening Period (1 to 5 weeks), a single-blind Run-in Period (2 weeks), a randomized double-blind Treatment Period (12 weeks), and a Follow-up Period (4 weeks).
Tolterodine ER 4 mg was the active control. […] Between the Baseline and Week 12 Visits, patients had study assessments at Week 4 and Week 8.
The Patient Voiding Diary was used by participants (via the eDiary or paper Diary) to record the frequency of daily OAB symptoms including all micturitions, urgency, incontinence, and main reason for incontinence by selecting the respective box for each symptom occurring during the course of a given day and night.
Urine volume data were collected separately by patients using the Urine Volume component of the eDiary, or the paper Urine Volume Chart. The Urine Volume Chart is a tool used in clinical practice and clinical investigation to assess voiding functions over a 24-hour period and is regarded as a useful instrument in the investigation of patients with voiding symptoms. Urine volume may be collected during any one (1) of the 7 Diary Days prior to the visit, and it should be recorded for ˜24 hours starting from the time the patient gets up for the day and continues until the time the patient gets up for the day on the next day.
For the purpose of this study, the number of micturitions was defined as the number of times a patient has voided in the toilet as indicated on the Patient Voiding Diary. Average daily micturitions were calculated using the daily entries in the Patient Voiding Diary, which was completed over the 7 days prior to each study visit. Average daily number of micturitions were calculated as the total number of micturitions that occurred on a Complete Diary Day divided by the number of Complete Diary Days in the Patient Voiding Diary. A complete diary day required confirmation by the patient in the Patient Voiding Diary that all voids and leakages had been recorded for the diary day. Baseline was defined as the average number of micturitions occurring during the last evaluable diary prior to the Baseline Visit.
The number of UUI episodes was defined as the number of times a patient had checked “urge” as the reason for accidental urine leakage. Average daily UUI episodes at each study visit were calculated in the same manner as described above for the micturition endpoint. The UUI endpoint were analyzed using only OAB Wet patients.
For the analysis of the co-primary endpoints (change from baseline in average number of daily micturitions at Week 12 and change from baseline in average number of daily urge urinary incontinence episodes at Week 12, and placebo adjustment of each), a mixed model for repeated measure (MMRM) with restricted maximum likelihood estimation was used. This model corrects for dropout and accounts for the fact that measurements taken on the same patient over time tend to be correlated by using all available information on patients within the same covariate set to derive an estimate of the treatment effect for a dropout-free population. The analysis model for each efficacy endpoint includes terms for treatment, visit, OAB Type (Wet vs Dry), Sex (Female vs Male), Region (US vs Rest of World), baseline score, and interaction of visit by treatment.
Primary inferences were drawn from treatment differences for the changes from baseline derived from the MMRM models at Week 12. As part of secondary objectives, the treatment differences for each post baseline visit were also derived using the same MMRM model. […]

[1] = Week 12, Age ≥ 75 years (posthoc analysis)
[2] = Week 12, No Prior ACH Use in last 12 Mo.
[3] = Week 12, No Prior B3 Agonist Use in last 12 Mo.
[4] = Week 12, Prior ACH Use in last 12 Mo.
[5] = Week 12, Prior B3 Agonist Use in last 12 Mo.

O=C(Nc1ccc(C[C@@H]2CC[C@H]([C@H](O)c3ccccc3)N2)cc1)[C@@H]1CCc2nccc(=O)n21 [Vibegron, (6S)-N-[4-[[(2S,5R)−5-[(R)-hydroxy(phenyl)methyl]pyrrolidin−2-yl]methyl]phenyl]−4-oxo−7,8-dihydro−6H-pyrrolo[1,2-a]pyrimidine−6-carboxamide]
Change from baseline in average volume voided per micturition, LS Mean (SE) (Week 8): 21.4 (3.20) mL
Estimated Incidence of Subjects with 50% Decrease from Baseline (urgency episodes) (Week 8): 31.8
Estimated Incidence of Subjects with 100% Decrease from Baseline (UUI episodes) (Week 8): 21.4
Total Incontinence, Active - Placebo LS Mean Difference (SE) (Week 8): −0.7 (0.15)
Urgency episodes, Active - Placebo LS Mean Difference (Week 8): −0.8
First 50% Reduction in Urgency Episodes, Events (Week 8): 166/360
First 100% Reduction in UUI Episodes, Events (Week 8): 86/317
Average Daily Number of Total Incontinence, Mean (SD) (Week 12): 1.89 (3.120)
Average daily number of urgency episodes, Mean (SD) (Week 12): 5.29 (4.500)
Average volume voided per micturition, Active - Placebo LS Mean Difference (Week 12): 21.2 mL
Average volume voided per micturition, Week 12 Mean (SD) (Week 12): 175.3 (81.78) mL
Change from Baseline in Average Daily Number of Total Incontinence, LS Mean (SE) (Week 12): −2.3 (0.15)
Change from baseline in average daily number of urgency episodes, LS Mean (Week 12): −2.7
Change from baseline in average volume voided per micturition, LS Mean (SE) (Week 12): 23.5 (3.26) mL
Estimated Incidence of Subjects with 50% Decrease from Baseline (urgency episodes) (Week 12): 43.8
Estimated Incidence of Subjects with 100% Decrease from Baseline (UUI episodes) (Week 12): 30.0
Total Incontinence, Active - Placebo LS Mean Difference (SE) (Week 12): −0.7 (0.16)
Urgency episodes, Active - Placebo LS Mean Difference (Week 12): −0.7
Micturitions: Week 12 CFB Mean (descriptive statistics) (Week 12, <65 yrs): −1.99
UUI: Week 12 CFB Mean (descriptive statistics) (Week 12, African American): −1.61
UUI: Week 12 CFB Median (Week 12, African American): −1.26
Micturitions: Week 12 CFB LS Mean (95% CI) (Week 12, Age < 65 years): −1.7
UUI: Week 12 CFB LS Mean (95% CI) (Week 12, Age < 65 years): −2.0
UUI: Week 12 CFB Mean (descriptive statistics) (Week 12, Age < 65 years): −2.08
Micturitions: Week 12 CFB LS Mean (95% CI) (Week 12, Age ≥ 65 years): −1.9
UUI: Week 12 CFB LS Mean (95% CI) (Week 12, Age ≥ 65 years): −2.0
UUI: Week 12 CFB Mean (descriptive statistics) (Week 12, Age ≥ 65 years): −1.94
Micturitions: Week 12 CFB LS Mean (95% CI) [1]: −2.1
UUI: Week 12 CFB LS Mean (95% CI) [1]: −2.0
UUI: Week 12 CFB Mean (descriptive statistics) (Week 12, Asian): −0.07
UUI: Week 12 CFB Median (Week 12, Asian): 0.00
Micturitions: Week 12 CFB LS Mean (95% CI) (Week 12, Females): −1.9
Micturitions: Week 12 CFB Mean (descriptive statistics) (Week 12, Females): −2.05
UUI: Week 12 CFB LS Mean (95% CI) (Week 12, Females): −2.1
UUI: Week 12 CFB Mean (descriptive statistics) (Week 12, Females): −2.10
Micturitions: Week 12 CFB LS Mean (95% CI) (Week 12, Males): −1.7
Micturitions: Week 12 CFB Mean (descriptive statistics) (Week 12, Males): −1.97
UUI: Week 12 CFB LS Mean (95% CI) (Week 12, Males): −1.6
UUI: Week 12 CFB Mean (descriptive statistics) (Week 12, Males): −1.35
Micturitions: Week 12 CFB Mean (descriptive statistics) (Week 12, Males with BPH): −1.50
UUI: Week 12 CFB Mean (descriptive statistics) (Week 12, Males with BPH): −1.09
Micturitions: Week 12 CFB Mean (descriptive statistics) (Week 12, Males without BPH): −2.26
UUI: Week 12 CFB Mean (descriptive statistics) (Week 12, Males without BPH): −1.51
Micturitions: Week 12 CFB Mean (descriptive statistics) [2]: −2.05
UUI: Week 12 CFB Mean (descriptive statistics) [2]: −2.12
Micturitions: Week 12 CFB Mean (descriptive statistics) [3]: −2.01
UUI: Week 12 CFB Mean (descriptive statistics) [3]: −2.03
Micturitions: Week 12 CFB LS Mean (95% CI) (Week 12, Non-White): −1.7
Micturitions: Week 12 CFB Mean (descriptive statistics) (Week 12, Non-White): −2.18
UUI: Week 12 CFB LS Mean (95% CI) (Week 12, Non-White): −1.3
UUI: Week 12 CFB Mean (descriptive statistics) (Week 12, Non-White): −1.14
UUI: Week 12 CFB Median (Week 12, Non-White): −1.00
Micturitions: Week 12 CFB LS Mean (95% CI) (Week 12, Overall): −1.8
Micturitions: Week 12 CFB Mean (descriptive statistics) (Week 12, Overall): −2.04
UUI: Week 12 CFB LS Mean (95% CI) (Week 12, Overall): −2.0
UUI: Week 12 CFB Mean (descriptive statistics) (Week 12, Overall): −2.01
Micturitions: Week 12 CFB Mean (descriptive statistics) [4]: −1.97
UUI: Week 12 CFB Mean (descriptive statistics) [4]: −1.46
Micturitions: Week 12 CFB Mean (descriptive statistics) [5]: −2.83
UUI: Week 12 CFB Mean (descriptive statistics) [5]: −1.64
Micturitions: Week 12 CFB LS Mean (95% CI) (Week 12, Region: Non-US): −1.8
Micturitions: Week 12 CFB Mean (descriptive statistics) (Week 12, Region: Non-US): −2.26
UUI: Week 12 CFB LS Mean (95% CI) (Week 12, Region: Non-US): −2.4
UUI: Week 12 CFB Mean (descriptive statistics) (Week 12, Region: Non-US): −2.60
Micturitions: Week 12 CFB LS Mean (95% CI) (Week 12, Region: US): −1.9
Micturitions: Week 12 CFB Mean (descriptive statistics) (Week 12, Region: US): −2.01
UUI: Week 12 CFB LS Mean (95% CI) (Week 12, Region: US): −1.9
UUI: Week 12 CFB Mean (descriptive statistics) (Week 12, Region: US): −1.92
Micturitions: Week 12 CFB LS Mean (95% CI) (Week 12, White): −1.8
Micturitions: Week 12 CFB Mean (descriptive statistics) (Week 12, White): −2.01
UUI: Week 12 CFB LS Mean (95% CI) (Week 12, White): −2.2
UUI: Week 12 CFB Mean (descriptive statistics) (Week 12, White): −2.23
UUI: Week 12 CFB Median (Week 12, White): −1.78
Micturitions, Week 12 LS Mean Change from Baseline (Placebo-Adjusted) (Week 12, co-primary endpoint): −0.5
UUI Episodes, Week 12 LS Mean Change from Baseline (Placebo-Adjusted) (Week 12, co-primary endpoint): −0.6
First 50% Reduction in Urgency Episodes, Events (Week 12): 225/301
First 100% Reduction in UUI Episodes, Events (Week 12): 119/284
Total Incontinence Episodes, Week 12 LS Mean Change from Baseline (Placebo-Adjusted) (Week 12, secondary endpoint): −0.7
Urgency Episodes, Week 12 LS Mean Change from Baseline (Placebo-Adjusted) (Week 12, secondary endpoint): −0.7
Micturitions, change at Week 12, mean (SD) (Week 12, subpopulation Age ≥65 years): −2.10 (2.83)
